# Laboratory results reported in US20200281208A1 (ISAGRO S.p.A., priority 2015, published 2020).
# Like-named read-outs stand apart in the source and are kept apart here.
# Tests used:
# Assay type in all cases: in vivo
# [1] = system: Pseudomonas syringae pv tomato; experiment: Biological evaluation of cupric salts of carboxylic acids on Pseudomonas syringae pv tomato, tomato plants in cold greenhouse (Example 10, comparative); conditions: 250 ppm a.i., survey 7 days after infection/treatment, 10 plants per plot
# Source text: Biological Evaluation of Cupric Salts of Carboxylic Acids on Pseudomonas syringae pv tomato
# A comparison was effected between the bactericidal activity of various cupric salts of carboxylic acids described in patent application US2009/136581 with that of crystalline foiin 1.
# (§1) The day after application, the plants were infected with a suspension of bacterial cells previously cultivated in Nutrient Broth culture broth, at a bacterium-broth concentration of 1:4.
# (§2) The inoculum, kept under stirring for 2 days, was sprayed on the plants in the morning, in guttation phase, with knapsack sprayers.
# (§3) Visual surveys were effected 7 days after each infection/treatment, analyzing 10 plants per plot, analyzing the percentage of leaf surface affected.
# Tomato plants = experiment: Phytotoxicity on treated tomato plants (Example 10, comparative); conditions: 250 ppm a.i.
# Source text: as §3
# [2] = system: Pseudomonas syringae pv tomato; conditions: survey 7 days after infection/treatment; for Leaf surface affected (%): tomato plants
# Source text: Biological Evaluation of the […] of […] on Pseudomonas syringae pv tomato
# In the above table, SC is an abbreviation of “concentrated aqueous suspension” and TQ of “as such”.
# as §1, §2
# Visual surveys were effected 7 days after each infection/treatment, analyzing 50 plants per plot, analyzing the percentage of plants infected and the percentage of leaf surface affected.
smiles,measurement,setting,value
O=C(O)CC(O)C(=O)O.[Cu] (centres unmarked) [Copper malate],Leaf surface affected (%),[1],5%
same,Phytotoxicity (%),Tomato plants,20%
O=C([O-])C(O)C(O)C(=O)[O-].[Cu+2] (centres unmarked) [Copper tartrate],Leaf surface affected (%),[1],69%
same,Phytotoxicity (%),Tomato plants,0%
"[Cu+2].[OH-].[OH-] [Cu(OH)2, copper hydroxide]",Quantity infected plants (%),[2]; 6.25 g a.i./100 l,37.5%
same,Quantity infected plants (%),[2]; 12.5 g a.i./100 l,35.7%
same,Quantity infected plants (%),"[2]; 25 g a.i./100 l, 500 l per hectare, 50 plants per plot",31.0%
same,Leaf surface affected (%),[2]; 6.25 g a.i./100 l,3.4%
same,Leaf surface affected (%),[2]; 12.5 g a.i./100 l,4.9%
same,Leaf surface affected (%),"[2]; 25 g a.i./100 l, 500 l per hectare",3.9%
O=C(O)CCC(=O)O.[Cu] [Copper succinate],Leaf surface affected (%),[1],50%
same,Phytotoxicity (%),Tomato plants,0%
O=C(O)c1ccccc1O [Salicylic acid],Quantity infected plants (%),[2]; 13.6 g a.i./100 l,40.7%
same,Quantity infected plants (%),[2]; 27.2 g a.i./100 l,31.5%
same,Quantity infected plants (%),[2]; 54.2 g a.i./100 l,36.3%
same,Leaf surface affected (%),[2]; 13.6 g a.i./100 l,4.7%
same,Leaf surface affected (%),[2]; 27.2 g a.i./100 l,3.9%
same,Leaf surface affected (%),[2]; 54.2 g a.i./100 l,3.5%
O=C(O)CCCC(=O)O.[Cu] [Copper glutarate],Leaf surface affected (%),[1],69%
same,Phytotoxicity (%),Tomato plants,0%
